In patent publication US20080293087A1, “SULFONYLUREA RECEPTOR SHORT FORMS FROM MITOCHONDRIA AND USES THEREOF” (priority 2006, published 2008):

How the values were obtained:
KIR6.2 (mouse) = KIR6.2 (mouse) (UniProt Q61743); experiment: cell-based or functional assay
KIR6.2/NMT 55-SUR2A = experiment: Inside-out patch-clamp potassium current, ATP sensitivity; format: cell-based, mouse; settings: 100 μM ATP, COS1 cells containing KIR6.2/NMT 55-SUR2A, 0 mV, room temperature (FIG. 3C)
Method: (§1) Cellular Electrophysiology: Electrophysiology experiments were carried out as previously described by Chutkow el al., with modifications. Chutkow W, et al., “Alternative splicing of sur2 Exon 17 regulates nucleotide sensitivity of the ATP-sensitive potassium channel,” J. Biol. Chem. 274:13656-13665 (1999). Briefly, KIR^6.2 was sub-cloned to 5′ of a bicistronic vector (pIRGFP, as pNQ56.) to express the desired NMT-SUR2 short forms and GFP under control of a cytomegalovirus promoter. The KIR6.2 construct was transiently expressed in COS1 cell lines that stably expressed NMT 55-SUR2A or NMT 55-SUR2B. Cells expressing GFP were used for cellular electrophysiological analysis.
(§2) Potassium currents were measured at room temperature (˜22-25° C.) by an inside-out patch-clamp technique. The bath solution (cytoplasmic side) comprised the following: 140 mM KCl, 2 mM cthylene glycol-bis(β-aminioethyl ether)-N,N,N′,N′-tetraacetic acid (EGTA), 5.5 mM glucose and 5 mM N-2-hydroxyethylpiperazine-N′-2-ethanesulfonic acid (HEPES) with pH 7.3. The pH was adjusted to the designated values using KOH or HCl. 100 μM K2ATP (Sigma) was used to test the ATP sensitivity, and the ATP-containing solutions were freshly prepared. […] Signals were recorded continuously at 0 mV using a patch-clamp amplifier (Axopatch 200; Molecular Devices; Toronto, Canada) and Clampex 10.0 software (Molecular Devices).

KIR6.2/NMT 55-SUR2B = experiment: as above; format: cell-based, mouse; settings: 100 μM ATP, COS1 cells containing KIR6.2/NMT 55-SUR2B, 0 mV, room temperature (FIG. 4C)
Method: as §1, §2

Chain of UniProt Q61743 (Q61743 whole entry): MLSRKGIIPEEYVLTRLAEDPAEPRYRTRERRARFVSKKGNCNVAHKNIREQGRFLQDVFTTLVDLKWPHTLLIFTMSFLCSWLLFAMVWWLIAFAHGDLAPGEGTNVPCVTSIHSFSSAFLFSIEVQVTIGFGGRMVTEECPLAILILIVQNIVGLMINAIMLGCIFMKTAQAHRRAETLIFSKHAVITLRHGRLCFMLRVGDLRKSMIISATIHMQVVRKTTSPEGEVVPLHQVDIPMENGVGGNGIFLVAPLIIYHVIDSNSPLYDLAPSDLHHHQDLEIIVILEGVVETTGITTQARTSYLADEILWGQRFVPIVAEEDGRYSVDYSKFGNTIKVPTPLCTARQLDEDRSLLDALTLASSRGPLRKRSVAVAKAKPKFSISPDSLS

Row | Compound | growth of E. coli K+ uptake mutant 6106 in M9 minimal medium pH 5.5 (KIR6.2 (mouse)) | IKATP-like current (KIR6.2/NMT 55-SUR2A) | IKATP-like current (KIR6.2/NMT 55-SUR2B)
1 | SUR2B short form (~55 kDa) (from UniProt P70170 1-1504) | 12% | – | –
2 | Nc1ncnc2c1ncn2[C@@H]1O[C@H](COP(=O)([O-])OP(=O)(O)OP(=O)([O-])O)[C@@H](O)[C@H]1O.[K+].[K+] [ATP] | – | inhibited | inhibited
